Experimental findings from patent US20080274097A1, “BOOSTER FOR THERAPY OF DISEASES WITH ULTRASOUND AND PHARMACEUTICAL LIQUID COMPOSITION CONTAINING THE SAME” (priority 1991, published 2008) are described below.

The test system of this assay is artificial thrombosis. As to the kind of experiment: Fibrinolysis of artificial thrombosis (Chandler's method) with ultrasonic catheter. Set-up: species or system human. Conditions: for time for achieving 20% fibrinolysis: FIG. 4, thrombosis from blood of one person, urokinase 1200 IU/ml. How it is done:
An artificial thrombosis was formed by Chandler's method. Blood (1 ml) that was collected from healthy humans (two persons) was entered into a flexible tube (inside diameter 3 mm, length 265 mm) and thereto was added calcium chloride, and then the tube was made a loop like shape, which was rotated at 12 rpm for 20 minutes to give an artificial thrombosis model.
A ceramic ultrasonic element (width 2 mm, length 5 mm, thickness 1 mm) was inserted into the tip of a catheter (diameter 2 mm), and an oscillating element was connected to an oscillator provided outside with a fine connector passed through the catheter. A fine tube for pouring a test solution was provided at an opening opposite to the opening of the catheter end.
The artificial thrombosis prepared above was added to a test tube together with blood, and the ultrasonic catheter was inserted into the test tube so that the end of the catheter was set close to the portion of the artificial thrombosis (at a distance of about 5 mm), and to the test tube a mixture of urokinase and a booster prepared in Example 1 was added at a rate of 1 ml per minute, wherein urokinase (concentration 1200 IU/ml) and the booster were mixed immediately before pouring at a mixing ration of 1:1 by weight. The mixture was refluxed while keeping the volume of the test solution at a constant level by removing excess volume of the solution by suction. The ultrasound (170 KHz) was exposed to the mixture by a pulse method (exposed for 2 seconds and stopped for 4 seconds) for 2 minutes (total exposing time 40 seconds). After the exposure, the ultrasonic catheter was removed from the test tube, and the mixture was incubated at 37 degrees C. for 5 to 120 minutes, washed with a physiological saline solution several times and dried overnight. Thereafter, the dried mixture was weighed. As a control, the above was repeated by using only a physiological saline solution.
The rate of fibrinolysis was calculated by the following equation: […]
The results are shown in the accompanying FIGS. 4 and 5 wherein there are shown in average of twice tests.

For urokinase, the “time for achieving 20% fibrinolysis” value came out at 30 min (with exposure of ultrasound (170 KHz, pulse, 2 minutes)) and 45 min (without exposure of ultrasound). Besides, the “treatment time at which 50% fibrinolysis was achieved” value (FIG. 5, thrombosis from blood of another person, with exposure of ultrasound, energy reduced by 15%) turned out to be 60 min.
